Experiment: xn = mol fraction of the nth substance listed
Conditions: 100 kPa, Liquid; for viscosity: Concentric cylinders viscometry; for mass density: Vibrating tube method

CC(=O)CC(C)C [4-methylpentan-2-one] + CCC(C)O
Conditions | mass density [kg/m3] | viscosity [mPa·s]
293.15 K, x1 = 0.1002 | 805.1 | 2.361
293.15 K, x1 = 0.1905 | 803.8 | 1.802
293.15 K, x1 = 0.2801 | 802.8 | 1.468
293.15 K, x1 = 0.4054 | 801.7 | 1.162
293.15 K, x1 = 0.4891 | 801.2 | 1.001
293.15 K, x1 = 0.6123 | 800.7 | 0.84
293.15 K, x1 = 0.6942 | 800.5 | 0.771
293.15 K, x1 = 0.779 | 800.5 | 0.713
293.15 K, x1 = 0.8747 | 800.5 | 0.646
293.15 K, x1 = 0.9522 | 800.7 | 0.614
293.15 K, x1 = 1 | 800.8 | 0.588
298.15 K, x1 = 0.1002 | 800.9 | 2.041
298.15 K, x1 = 0.1905 | 799.5 | 1.598
298.15 K, x1 = 0.2801 | 798.4 | 1.311
298.15 K, x1 = 0.4054 | 797.2 | 1.053
298.15 K, x1 = 0.4891 | 796.6 | 0.916
298.15 K, x1 = 0.6123 | 796 | 0.776
298.15 K, x1 = 0.6942 | 795.9 | 0.717
298.15 K, x1 = 0.779 | 795.8 | 0.666
298.15 K, x1 = 0.8747 | 795.8 | 0.607
298.15 K, x1 = 0.9522 | 796 | 0.582
298.15 K, x1 = 1 | 796.1 | 0.554
303.15 K, x1 = 0.1002 | 796.4 | 1.762
303.15 K, x1 = 0.1905 | 795 | 1.403
303.15 K, x1 = 0.2801 | 793.9 | 1.173
303.15 K, x1 = 0.4054 | 792.6 | 0.955
303.15 K, x1 = 0.4891 | 792.1 | 0.84
303.15 K, x1 = 0.6123 | 791.5 | 0.716
303.15 K, x1 = 0.6942 | 791.3 | 0.668
303.15 K, x1 = 0.779 | 791.2 | 0.621
303.15 K, x1 = 0.8747 | 791.3 | 0.569
303.15 K, x1 = 0.9522 | 791.4 | 0.545
303.15 K, x1 = 1 | 791.6 | 0.523
308.15 K, x1 = 0.1002 | 792 | 1.531
308.15 K, x1 = 0.1905 | 790.5 | 1.247
308.15 K, x1 = 0.2801 | 789.3 | 1.055
308.15 K, x1 = 0.4054 | 788 | 0.87
308.15 K, x1 = 0.4891 | 787.4 | 0.775
308.15 K, x1 = 0.6123 | 786.7 | 0.664
308.15 K, x1 = 0.6942 | 786.5 | 0.623
308.15 K, x1 = 0.779 | 786.5 | 0.582
308.15 K, x1 = 0.8747 | 786.5 | 0.536
308.15 K, x1 = 0.9522 | 786.7 | 0.513
308.15 K, x1 = 1 | 786.9 | 0.493
313.15 K, x1 = 0.1002 | 787.6 | 1.341
313.15 K, x1 = 0.1905 | 786 | 1.1
313.15 K, x1 = 0.2801 | 784.7 | 0.94
313.15 K, x1 = 0.4054 | 783.4 | 0.787
313.15 K, x1 = 0.4891 | 782.7 | 0.708
313.15 K, x1 = 0.6123 | 782.1 | 0.621
313.15 K, x1 = 0.6942 | 781.9 | 0.58
313.15 K, x1 = 0.779 | 781.8 | 0.544
313.15 K, x1 = 0.8747 | 781.9 | 0.505
313.15 K, x1 = 0.9522 | 782.1 | 0.485
313.15 K, x1 = 1 | 782.3 | 0.463
318.15 K, x1 = 0.1002 | 783 | 1.181
318.15 K, x1 = 0.1905 | 781.3 | 0.984
318.15 K, x1 = 0.2801 | 780 | 0.847
318.15 K, x1 = 0.4054 | 778.6 | 0.715
318.15 K, x1 = 0.4891 | 777.9 | 0.649
318.15 K, x1 = 0.6123 | 777.3 | 0.575
318.15 K, x1 = 0.6942 | 777.1 | 0.535
318.15 K, x1 = 0.779 | 777 | 0.505
318.15 K, x1 = 0.8747 | 777.1 | 0.477
318.15 K, x1 = 0.9522 | 777.4 | 0.458
318.15 K, x1 = 1 | 777.6 | 0.437
323.15 K, x1 = 0.1002 | 778.3 | 1.035
323.15 K, x1 = 0.1905 | 776.6 | 0.88
323.15 K, x1 = 0.2801 | 775.3 | 0.772
323.15 K, x1 = 0.4054 | 773.8 | 0.662
323.15 K, x1 = 0.4891 | 773.2 | 0.603
323.15 K, x1 = 0.6123 | 772.6 | 0.535
323.15 K, x1 = 0.6942 | 772.4 | 0.501
323.15 K, x1 = 0.779 | 772.3 | 0.471
323.15 K, x1 = 0.8747 | 772.5 | 0.449
323.15 K, x1 = 0.9522 | 772.7 | 0.434
323.15 K, x1 = 1 | 773 | 0.41
